In ChEMBL document CHEMBL4393686, “InCl3 mediated heteroarylation of indoles and their derivatization via CH activation strategy: Discovery of 2-(1H-indol-3-yl)-quinoxaline derivatives as a new class of PDE4B selective inhibitors for arthritis and/or multiple sclerosis” (Eur J Med Chem, 2019):
Active and inactive are the calls of the source. The rule behind the calls is not given here.

Legend:
[1] = molecular target: 3',5'-cyclic-AMP phosphodiesterase 4D (Homo sapiens, UniProt Q08499); assay: Inhibition of PDE4D2 (unknown origin) using cAMP as substrate preincubated with enzyme for 15 mins followed by substrate addition and incubated for 1 hr by PDELight HTS cAMP phosphodiesterase Kit based luminometry
3',5'-cyclic-AMP phosphodiesterase 4D, sequence (Q08499 whole entry): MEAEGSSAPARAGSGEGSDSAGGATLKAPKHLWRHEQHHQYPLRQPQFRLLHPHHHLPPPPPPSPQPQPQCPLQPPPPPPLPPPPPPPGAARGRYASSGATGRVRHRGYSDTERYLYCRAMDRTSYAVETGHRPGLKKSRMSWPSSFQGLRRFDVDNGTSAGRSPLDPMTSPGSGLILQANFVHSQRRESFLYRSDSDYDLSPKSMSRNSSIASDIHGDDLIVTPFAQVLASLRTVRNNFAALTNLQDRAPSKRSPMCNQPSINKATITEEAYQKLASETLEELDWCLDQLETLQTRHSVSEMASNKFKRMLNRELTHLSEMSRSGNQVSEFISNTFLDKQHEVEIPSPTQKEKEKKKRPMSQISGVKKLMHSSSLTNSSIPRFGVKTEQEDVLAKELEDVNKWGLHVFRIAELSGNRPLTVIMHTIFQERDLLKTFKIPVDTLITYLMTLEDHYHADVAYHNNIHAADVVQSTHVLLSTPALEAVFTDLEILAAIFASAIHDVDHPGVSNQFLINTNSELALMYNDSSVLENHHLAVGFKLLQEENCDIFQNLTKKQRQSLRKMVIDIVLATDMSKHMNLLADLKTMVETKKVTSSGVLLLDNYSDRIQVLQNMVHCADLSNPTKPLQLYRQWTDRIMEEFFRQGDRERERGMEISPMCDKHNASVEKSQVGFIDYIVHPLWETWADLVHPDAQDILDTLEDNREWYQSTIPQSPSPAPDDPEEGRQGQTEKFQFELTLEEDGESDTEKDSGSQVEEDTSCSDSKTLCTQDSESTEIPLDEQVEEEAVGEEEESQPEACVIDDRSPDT

[2] = molecular target: T1, 3',5'-cyclic-AMP phosphodiesterase 4B (Homo sapiens, UniProt Q07343); assay: Inhibition of human recombinant His-tagged PDE4B expressed in Sf9 cells using cAMP as substrate at 10 uM preincubated with enzyme for 15 mins followed by substrate addition and incubated for 1 hr by PDELight HTS cAMP phosphodiesterase Kit based luminometry relative to control
T1 sequence (Q07343 whole entry): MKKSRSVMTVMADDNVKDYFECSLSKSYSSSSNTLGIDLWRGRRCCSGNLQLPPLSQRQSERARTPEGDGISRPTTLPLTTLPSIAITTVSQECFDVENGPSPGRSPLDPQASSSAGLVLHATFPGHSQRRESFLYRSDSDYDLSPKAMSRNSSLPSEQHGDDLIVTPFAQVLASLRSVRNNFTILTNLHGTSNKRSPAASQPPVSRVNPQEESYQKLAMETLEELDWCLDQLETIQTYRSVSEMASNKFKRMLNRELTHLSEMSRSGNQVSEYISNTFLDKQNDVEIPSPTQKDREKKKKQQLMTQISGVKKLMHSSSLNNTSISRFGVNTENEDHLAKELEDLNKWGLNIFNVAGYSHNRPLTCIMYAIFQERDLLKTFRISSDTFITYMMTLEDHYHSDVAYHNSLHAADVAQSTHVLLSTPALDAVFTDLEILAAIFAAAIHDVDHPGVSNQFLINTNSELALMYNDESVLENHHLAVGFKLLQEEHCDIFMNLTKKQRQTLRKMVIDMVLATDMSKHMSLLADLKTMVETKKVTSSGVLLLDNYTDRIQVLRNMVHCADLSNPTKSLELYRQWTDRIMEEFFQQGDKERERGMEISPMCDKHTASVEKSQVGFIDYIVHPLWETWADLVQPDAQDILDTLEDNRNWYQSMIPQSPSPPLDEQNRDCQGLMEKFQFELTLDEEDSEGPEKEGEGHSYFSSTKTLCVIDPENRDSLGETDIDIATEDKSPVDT

[3] = species: Homo sapiens; assay: Selectivity index, ratio of IC50 for PDE4D2 (unknown origin) to IC50 for recombinant His-tagged human PDE4B expressed in sf9 cells using cAMP as substrate by PDELight HTS cAMP phosphodiesterase Kit based luminometry
[4] = molecular target: T1, 3',5'-cyclic-AMP phosphodiesterase 4B; assay: Inhibition of recombinant His-tagged human PDE4B expressed in Sf9 cells using cAMP as substrate preincubated with enzyme for 15 mins followed by substrate addition and incubated for 1 hr by PDELight HTS cAMP phosphodiesterase Kit based luminometry
[5] = molecular target: High affinity 3',5'-cyclic-AMP phosphodiesterase 7A (Homo sapiens) (UniProt Q13946); assay: Inhibition of recombinant N-terminal GST tagged human PDE7A1 (122-end aa) expressed in Sf9 cells using FAM-cAMP as substrate at 1xIC50 incubated for 60 mins by fluorescence plate reader analysis
High affinity 3',5'-cyclic-AMP phosphodiesterase 7A (Homo sapiens), sequence (Q13946 whole entry): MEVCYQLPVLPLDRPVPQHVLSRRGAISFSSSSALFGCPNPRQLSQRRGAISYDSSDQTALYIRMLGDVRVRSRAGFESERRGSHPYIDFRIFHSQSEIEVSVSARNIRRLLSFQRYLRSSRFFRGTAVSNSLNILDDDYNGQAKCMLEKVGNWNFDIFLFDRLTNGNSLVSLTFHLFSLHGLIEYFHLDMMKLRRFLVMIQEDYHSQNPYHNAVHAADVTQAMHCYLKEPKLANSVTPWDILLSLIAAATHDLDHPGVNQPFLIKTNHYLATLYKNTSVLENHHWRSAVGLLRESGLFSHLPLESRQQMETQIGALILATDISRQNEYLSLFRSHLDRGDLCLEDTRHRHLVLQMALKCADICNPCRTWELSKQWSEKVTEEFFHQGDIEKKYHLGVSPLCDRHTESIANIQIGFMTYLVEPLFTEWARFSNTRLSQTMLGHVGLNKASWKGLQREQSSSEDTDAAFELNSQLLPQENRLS

[6] = molecular target: High affinity 3',5'-cyclic-AMP phosphodiesterase 7A (Homo sapiens) (UniProt Q13946); assay: Inhibition of recombinant N-terminal GST tagged human PDE7A1 (122-end aa) expressed in Sf9 cells using FAM-cAMP as substrate at 0.1xIC50 incubated for 60 mins by fluorescence plate reader analysis
[7] = molecular target: High affinity 3',5'-cyclic-AMP phosphodiesterase 7A (Homo sapiens) (UniProt Q13946); assay: Inhibition of recombinant N-terminal GST tagged human PDE7A1 (122-end aa) expressed in Sf9 cells using FAM-cAMP as substrate at 10xIC50 incubated for 60 mins by fluorescence plate reader analysis
[8] = Toxicity in zebrafish embryo assessed as effect in brain formation at 3000 uM; format: tissue-based, Danio rerio; conditions: in vivo
[9] = Toxicity in zebrafish embryo assessed as effect in heart formation at 3000 uM; format: tissue-based, Danio rerio; conditions: in vivo
[10] = Toxicity in zebrafish embryo assessed as effect in upper jaw formation at 3000 uM; design: species or system Danio rerio; conditions: in vivo
[11] = Toxicity in zebrafish embryo assessed as effect in tail formation at 3000 uM; design: species or system Danio rerio; conditions: in vivo
[12] = Toxicity in zebrafish embryo assessed as effect in liver formation at 3000 uM; design: species or system Danio rerio; conditions: in vivo
[13] = Toxicity in zebrafish embryo assessed as effect in notochord formation at 3000 uM; design: species or system Danio rerio; conditions: in vivo
[14] = Toxicity in zebrafish embryo assessed as effect in intestine formation at 3000 uM; format: tissue-based, Danio rerio; conditions: in vivo
[15] = Toxicity in zebrafish embryo assessed as change in body shape at 3000 uM; design: species or system Danio rerio; conditions: in vivo
[16] = Toxicity in zebrafish embryo assessed as effect in lower jaw formation at 3000 uM; design: species or system Danio rerio; conditions: in vivo
[17] = Toxicity in zebrafish embryo assessed as effect in fin formation at 3000 uM; design: species or system Danio rerio; conditions: in vivo
[18] = Toxicity in zebrafish embryo assessed as effect in swim bladder formation at 3000 uM; design: species or system Danio rerio; conditions: in vivo
[19] = Toxicity in zebrafish embryo assessed as effect in somite formation at 3000 uM; design: species or system Danio rerio; conditions: in vivo
[20] = Selectivity for recombinant His-tagged PDE4B (unknown origin) expressed in Sf9 cells over PDE4D2 (unknown origin); conditions: Homo sapiens
[21] = molecular target: T1, 3',5'-cyclic-AMP phosphodiesterase 4B; assay: Inhibition of recombinant His-tagged PDE4B (unknown origin) expressed in Sf9 cells using cAMP as substrate preincubated for 15 mins followed by substrate addition and incubated for 1 hr by PDELight HTS cAMP phosphodiesterase Kit based luminometry
[22] = molecular target: High affinity cAMP-specific and IBMX-insensitive 3',5'-cyclic phosphodiesterase 8A (Homo sapiens) (UniProt O60658); assay: Inhibition of recombinant N-terminal GST-tagged full length human PDE8A1 expressed in Sf9 cells using FAM-cAMP as substrate at 0.1xIC50 incubated for 60 mins by fluorescence plate reader analysis
High affinity cAMP-specific and IBMX-insensitive 3',5'-cyclic phosphodiesterase 8A (Homo sapiens), sequence (O60658 whole entry): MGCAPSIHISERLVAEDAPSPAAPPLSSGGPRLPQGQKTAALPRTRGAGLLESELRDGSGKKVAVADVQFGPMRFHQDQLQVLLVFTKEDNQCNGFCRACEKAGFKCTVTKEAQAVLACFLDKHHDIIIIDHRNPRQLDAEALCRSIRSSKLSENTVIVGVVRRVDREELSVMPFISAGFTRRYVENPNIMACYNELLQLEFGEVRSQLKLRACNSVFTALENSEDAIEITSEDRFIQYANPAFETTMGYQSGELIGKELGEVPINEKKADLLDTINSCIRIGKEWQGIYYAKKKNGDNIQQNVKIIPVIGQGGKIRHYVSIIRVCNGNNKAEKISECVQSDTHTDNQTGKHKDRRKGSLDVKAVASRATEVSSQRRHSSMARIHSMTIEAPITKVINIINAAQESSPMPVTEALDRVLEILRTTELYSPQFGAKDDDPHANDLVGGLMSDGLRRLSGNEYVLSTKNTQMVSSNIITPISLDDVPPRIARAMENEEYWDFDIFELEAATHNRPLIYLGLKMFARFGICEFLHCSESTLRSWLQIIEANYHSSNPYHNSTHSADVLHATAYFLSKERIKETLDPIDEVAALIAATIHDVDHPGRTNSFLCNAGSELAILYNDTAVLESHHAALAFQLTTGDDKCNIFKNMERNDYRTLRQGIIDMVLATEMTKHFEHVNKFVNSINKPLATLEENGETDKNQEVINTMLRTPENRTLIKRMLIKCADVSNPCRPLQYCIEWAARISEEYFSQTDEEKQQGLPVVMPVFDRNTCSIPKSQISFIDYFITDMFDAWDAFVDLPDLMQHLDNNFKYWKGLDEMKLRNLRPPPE

[23] = molecular target: High affinity cAMP-specific and IBMX-insensitive 3',5'-cyclic phosphodiesterase 8A (Homo sapiens) (UniProt O60658); assay: Inhibition of recombinant N-terminal GST-tagged full length human PDE8A1 expressed in Sf9 cells using FAM-cAMP as substrate at 1xIC50 incubated for 60 mins by fluorescence plate reader analysis
[24] = molecular target: 3',5'-cyclic-AMP phosphodiesterase 7B (Homo sapiens) (UniProt Q9NP56); assay: Inhibition of recombinant N-terminal GST tagged and C-terminal His-tagged human PDE7B (109-ens aa) expressed in Sf9 cells using FAM-cAMP as substrate at 1xIC50 incubated for 60 mins by fluorescence plate reader analysis
3',5'-cyclic-AMP phosphodiesterase 7B (Homo sapiens), sequence (Q9NP56 whole entry): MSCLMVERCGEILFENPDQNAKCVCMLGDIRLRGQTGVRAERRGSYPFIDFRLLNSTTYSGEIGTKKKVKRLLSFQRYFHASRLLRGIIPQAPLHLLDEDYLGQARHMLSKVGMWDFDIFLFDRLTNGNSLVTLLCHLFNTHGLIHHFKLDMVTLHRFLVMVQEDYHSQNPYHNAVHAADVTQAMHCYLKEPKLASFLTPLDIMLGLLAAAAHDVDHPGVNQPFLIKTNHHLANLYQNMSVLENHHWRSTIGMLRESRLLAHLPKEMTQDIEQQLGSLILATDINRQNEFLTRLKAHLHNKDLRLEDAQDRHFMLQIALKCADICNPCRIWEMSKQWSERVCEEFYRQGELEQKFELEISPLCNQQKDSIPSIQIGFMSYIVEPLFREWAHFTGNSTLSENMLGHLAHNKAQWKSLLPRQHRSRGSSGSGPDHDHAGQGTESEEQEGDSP

[25] = molecular target: High affinity cAMP-specific and IBMX-insensitive 3',5'-cyclic phosphodiesterase 8A (Homo sapiens) (UniProt O60658); assay: Inhibition of recombinant N-terminal GST-tagged full length human PDE8A1 expressed in Sf9 cells using FAM-cAMP as substrate at 10xIC50 incubated for 60 mins by fluorescence plate reader analysis
[26] = molecular target: 3',5'-cyclic-AMP phosphodiesterase 7B (Homo sapiens) (UniProt Q9NP56); assay: Inhibition of recombinant N-terminal GST tagged and C-terminal His-tagged human PDE7B (109-ens aa) expressed in Sf9 cells using FAM-cAMP as substrate at 0.1xIC50 incubated for 60 mins by fluorescence plate reader analysis
[27] = system: Rattus norvegicus; assay: Antiarthritic activity in complete Freund's adjuvant-induced Wistar rat arthritis model assessed as reduction in paw volume at 2 mg/kg, ip administered from 11th day to 20th day by vernier caliper analysis; format: functional, organism-based

CCC(C)n1cc(-c2nc3ccccc3nc2Cl)c2cc(OC)ccc21 (configuration not stated)
IC50 [1]: 4.93 µM
inhibition [2]: > 75%
Ratio IC50 [3]: 4.75
IC50 [4]: 1.04 µM

C=CCn1cc(-c2nc3ccccc3nc2Cl)c2ccccc21
IC50 [1]: 22 µM
inhibition [2]: > 75%
Ratio IC50 [3]: 4.8
IC50 [4]: 4.67 µM

COc1ccc2c(c1)c(-c1nc3ccccc3nc1Cl)cn2C(C)C
IC50 [1]: 5.02 µM
inhibition [2]: > 75%
Ratio IC50 [3]: 11.4
IC50 [4]: 0.44 µM

Cc1ccc([N+](=O)[O-])cc1S(=O)(=O)N(C)C
inhibition [5]: 49%
inhibition [6]: 10%
inhibition [7]: 88%

CCC1(c2ccccc2)C(=O)NC(=O)NC1=O [PHENOBARBITAL]
Activity [8]: Toxic
Activity [9]: Toxic
Activity [10]: Toxic
Activity [11]: Toxic
Activity [12]: Toxic
Activity [13]: Toxic
Activity [14]: Toxic
Activity [15]: Toxic
Activity [16]: Toxic
Activity [17]: Toxic
Activity [18]: Toxic
Activity [19]: Toxic

Cc1cc2c(s1)N(Cc1cc3cc(Br)ccc3n1S(C)(=O)=O)c1ccccc1N=C2N1CCN(C)CC1
Selectivity ratio [20]: > 10
IC50 [21]: 1.1 µM

COC(=O)/C=C/c1[nH]c2ccccc2c1-c1nc2ccccc2nc1Cl
inhibition [2]: > 75%
IC50 [4]: 3.88 µM

OCCN(CCO)c1nc(N2CCCCC2)c2nc(N(CCO)CCO)nc(N3CCCCC3)c2n1
inhibition [22]: 13%
inhibition [23]: 55%
inhibition [24]: 48%
inhibition [25]: 88%
inhibition [26]: 3%

CN(Cc1cnc2nc(N)nc(N)c2n1)c1ccc(C(=O)N[C@@H](CCC(=O)O)C(=O)O)cc1
inhibition [27]: Active
